Measured values from US20250144067A1, “PERSONALIZED STARVATION THERAPY FOR CANCER” (Faeth Therapeutics, Inc., priority 2021, published 2025).
Counter-ions that a name gives are not always drawn.

Columns and labels:
[1] = system: NCI-H292 lung cancer cells; test: FDA drug screening, complete media vs cholesterol-free media with simvastatin (TABLE 2); assay type: cell-based, human; conditions: for Cholesterol-free media + simvastatin (0.04 μM) / Complete Media: NCI-H292 cells
[2] = system: NCI-H292 lung cancer cells; test: FDA drug screening, complete media vs cholesterol-free media without statin (TABLE 1); assay type: cell-based, human
[3] = drug in cholesterol-free media with simvastatin 0.04 μM
[4] = complete media vs cholesterol-free media + simvastatin (0.04 μM), >0 enhanced anti-cancer activity, about 0 neutral, <0 antagonist
[5] = NCI-H292 cells, cholesterol-free media without statin
[6] = complete vs cholesterol-free media, greater than 0 enhanced anti-cancer activity, about 0 neutral, below 0 antagonists
[7] = FDA drug library screen, cholesterol-free media with simvastatin 0.04 μM
[8] = Complete minus Cholesterol-free, […]
[9] = NCI-H292 cells, cholesterol-free media without statin, FDA drug library screen
[10] = NCI-H292 cells, complete media, FDA drug library screen
[11] = FDA drug library screen, complete media
[12] = Complete minus Cholesterol-free, greater than 0 enhanced anti-cancer activity, about 0 neutral, below 0 antagonists
[13] = NCI-H292 cells in cholesterol-free media without statin
[14] = NCI-H292 cells in complete media
[15] = Complete minus Cholesterol-free, >0 enhanced anti-cancer activity, about 0 neutral, <0 antagonist
[16] = cholesterol-free media with simvastatin 0.04 μM, cell growth value in FDA drug screen
[17] = complete media, cell growth value in FDA drug screen
[18] = complete media minus cholesterol-free media + simvastatin, >0 enhanced anti-cancer activity, about 0 neutral, <0 antagonist

CC(=O)NCCCCCC(=O)O [6-Acetamidohexanoic acid]
Cholesterol-free media + simvastatin (0.04 μM) [1, 3]: 1.04
Complete Media ([1]; drug in complete media): 0.7847
Difference [1, 4]: −0.26
Cholesterol-free [2, 5]: 1.348
Complete ([2]; NCI-H292 cells, complete media): 1.01
Difference [2, 6]: −0.34

Selumetinib (sulfate)
Cholesterol-free media + simvastatin (0.04 μM) [1, 7]: 0.2941
Difference ([1]; complete media vs cholesterol-free media + simvastatin (0.04 μM), […]): −0.10
Difference [2, 8]: −0.06
Cholesterol-free [2, 9]: 0.3932
Complete [2, 10]: 0.3287

COC(=O)C1=C(C)NC(C)=C(C(=O)OC)C1c1ccccc1[N+](=O)[O-] [Nifedipine]
Cholesterol-free media + simvastatin (0.04 μM) [1, 7]: 1.819
Complete Media [1, 11]: 1.696
Difference [1, 4]: −0.12
Difference [2, 12]: −0.53
Cholesterol-free [2, 13]: 1.45
Complete [2, 14]: 0.9229

NC(=O)N1c2ccccc2C[C@H](O)c2ccccc21 [Eslicarbazepine]
Cholesterol-free media + simvastatin (0.04 μM) [1, 3]: 1.137
Complete Media ([1]; drug in complete media): 0.9164
Difference [1, 4]: −0.22
Difference [2, 15]: −0.02
Cholesterol-free [2, 9]: 0.8833
Complete [2, 10]: 0.8587

COc1cc([C@@H]2c3cc4c(cc3[C@@H](O[C@@H]3O[C@@H]5CO[C@@H](C)O[C@H]5[C@H](O)[C@H]3O)[C@H]3COC(=O)[C@H]23)OCO4)cc(OC)c1O [Etoposide]
Cholesterol-free media + simvastatin (0.04 μM) [1, 3]: 0.718
Complete Media ([1]; drug in complete media): 0.5014
Difference [1, 4]: −0.22
Difference [2, 15]: −0.29
Cholesterol-free [2, 5]: 0.7069
Complete ([2]; NCI-H292 cells, complete media): 0.4154

C[C@](N)(Cc1ccc(O)c(O)c1)C(=O)O.O [L-(−)-α-Methyldopa (hydrate)]
Cholesterol-free media + simvastatin (0.04 μM) ([1]; FDA library drug in cholesterol-free media with simvastatin 0.04 μM): 1.97
Complete Media ([1]; FDA library drug in complete media): 1.117
Difference [1, 4]: −0.85
Difference [2, 12]: −0.69
Cholesterol-free [2, 13]: 1.665
Complete [2, 14]: 0.973

CO/N=C(\C(=O)N[C@@H]1C(=O)N2C(C(=O)O)=C(CSc3nc(C)c(CC(=O)O)s3)CS[C@H]12)c1csc(N)n1 [Cefodizime]
Cholesterol-free media + simvastatin (0.04 μM) [1, 3]: 1.707
Complete Media ([1]; drug in complete media): 1.539
Difference [1, 4]: −0.17
Difference [2, 15]: −0.06
Cholesterol-free [2, 9]: 0.9888
Complete [2, 10]: 0.9297

N[C@H](CO)C(=O)O [(R)-Serine]
Cholesterol-free media + simvastatin (0.04 μM) [1, 16]: 0.9633
Complete Media [1, 17]: 1.052
Difference [1, 18]: 0.09
Cholesterol-free [2, 5]: 1.718
Complete ([2]; NCI-H292 cells, complete media): 1.345
Difference [2, 6]: −0.37

C=C[C@H]1C[N@@]2CC[C@H]1C[C@H]2[C@H](O)c1ccnc2ccc(OC)cc12 [Quinine (hydrochloride dihydrate)]
Cholesterol-free media + simvastatin (0.04 μM) [1, 7]: 1.208
Difference [1, 4]: −0.15
Difference [2, 15]: 0.03

CC(C(=O)O)c1ccc(CC2CCCC2=O)cc1 (centres unmarked) [Loxoprofen (sodium)]
Cholesterol-free media + simvastatin (0.04 μM) [1, 7]: 1.087
Complete Media [1, 11]: 1.62
Difference [1, 18]: 0.53
Difference [2, 15]: −0.22
Cholesterol-free [2, 5]: 0.9775
Complete ([2]; NCI-H292 cells, complete media): 0.7554

Oseltamivir (phosphate)
Cholesterol-free media + simvastatin (0.04 μM) ([1]; cholesterol-free media with simvastatin 0.04 μM, […]): 0.8277
Complete Media ([1]; complete media, […]): 0.8627
Difference ([1]; complete media minus cholesterol-free media + simvastatin, […]): 0.04
Difference [2, 8]: −0.16
Cholesterol-free ([2]; NCI-H292 cells, FDA drug library screen, cholesterol-free media without statin): 1.28
Complete ([2]; NCI-H292 cells, FDA drug library screen, complete media): 1.117

CN1CCC(=C2c3ccccc3C=Cc3ccccc32)CC1 [Cyproheptadine (hydrochloride sesquihydrate)]
Cholesterol-free media + simvastatin (0.04 μM) [1, 16]: 1.087
Complete Media [1, 17]: 1.192
Difference [1, 18]: 0.11
Cholesterol-free [2, 9]: 0.8413
Complete [2, 10]: 1.399
Difference ([2]; complete vs cholesterol-free media, >0 enhanced anti-cancer activity, about 0 neutral, <0 antagonist): 0.56

O=C(O)Cc1ccccc1Nc1c(Cl)cccc1Cl [Diclofenac (potassium)]
Cholesterol-free media + simvastatin (0.04 μM) ([1]; cholesterol-free media with simvastatin 0.04 μM, FDA drug library screen (TABLE 2)): 1.093
Complete Media ([1]; complete media, FDA drug library screen (TABLE 2)): 1.041
Difference ([1]; complete media minus cholesterol-free media + simvastatin (0.04 μM), >0 enhanced anti-cancer activity, about 0 neutral, <0 antagonist): −0.05
Difference [2, 15]: −0.03
Cholesterol-free [2, 9]: 1.133
Complete [2, 10]: 1.107
